Tests used:
NF90-8 cells = experiment: Cell proliferation assay (Cell Counting Kit-8), NF90-8; assay type: cell-based; conditions: Homo sapiens, 72 h
Description: (§1) The human NF1-associated MPNST cell line NF90.8 was privately provided and sNF96.2 was purchased from the American Type Culture Collection. […] These cell lines were not authenticated. All cells were tested and found free of mycoplasma contamination. A cell proliferation assay was performed using Cell Counting Kit-8. Cells in 100 μL media in a 96-well plate were incubated with 10 μL of WST-8, a tetrazolium salt, at 37° C. in a tissue culture incubator. Absorbance was measured at 450 nm. Half maximal inhibitory concentrations (IC50s) were determined by incubating cells at a range of concentrations for 72 h and were calculated using the log (inhibitor) vs. response function and non-linear fit. Human MPNST cells NF90-8 and sNF96.2, both derived from NF1 patients, were treated with various MBZ concentrations for 72 h. […] Because NF1-associated tumors are mainly driven by Ras hyperactivation, MBZ's ability to inhibit Ras activity in the NF90-8 cell line was studied by exposing NF90-8 cells to different concentrations of MBZ (0.2 and 1 μM) for 24 h. […] This confirmed the Ras inhibitory effect of MBZ in vitro.

[1] = Dose-dependent toxicity of medicated feed in NPcis mice; assay type: in vivo
Description: (§2) At day 60 after birth, heterozygous mice were started on the medicated feed or water. The mouse diet consisting of 45 kcal % fat containing soybean oil and lard for fat was used as the control feed. […] Sulindac was added to drinking water at 160 ppm (0.5 mg/day) in 4 mM sodium phosphate buffer as previously described. Animals were palpated weekly for tumors and survival and cause of death were recorded.
This range was calculated based on previously established maximal dose of 50 mg/kg MBZ via oral gavage and the estimated daily food intake of a mouse. Mice were weighed weekly and examined for signs of toxicity over 4 weeks.

[2] = system: NPcis (cis Nf1+/-; Tp53+/-) mice; experiment: Chemoprevention in NPcis mice (tumor onset, survival, cause of death); assay type: in vivo; conditions: for effect on survival of non-solid malignancy-related and unknown causes of death / effect on overall median survival vs controls / overall median survival: NPcis mice; for effect on survival of non-solid malignancy-related and unknown causes of death: male and female; for effect on overall median survival vs controls: treatment from day 60; for overall median survival: MBZ 195 mg/kg feed, CXB 1000 ppm feed, SUL 160 ppm drinking water; for increase in median survival: 195 mg/kg feed
Text: NPcis (cis Nf1+/−; Tp53+/−) mice in C57BL/6 background (B6;129S2-Trp53tm1Tyj Nf1tm1Tyj/J) were bred by pairing male heterozygous NPcis mice with the female wildtype mice to better generate MPNST animals. Since homozygous Nf1/Tp53 KO mice are embryonically lethal, only heterozygous and wildtype pups were born. Like NF1 patients, NPcis mice spontaneously develop predominantly soft tissue sarcomas including MPNSTs (genetically engineered murine (GEM) PNSTs) and malignant Triton tumors, as well as rhabdomyosarcomas and astrocytomas that severely limit their life expectancy to ˜5 months. The addition of heterozygous Tp53 knock-out (KO) accelerates the cancer development, which mimics the secondary mutations required for the transformation to malignancies such as MPNST, where the second copy of Nf1 is also lost due to the loss of heterozygosity (LOH).
as §2
In order to investigate the tumor-preventative effects of MBZ, continuous oral administration of MBZ via 195 mg/kg feed was initiated at 60 days after birth, before the formation of any malignancies. Mice were palpated weekly for the presence of any tumors. For the purpose of this study, ‘Solid Malignancies’ were defined as any type of sarcoma and astrocytoma, in addition to neuroblastomas and carcinomas, while ‘Others’ included non-solid malignancies such as lymphomas, leukemias and unknown causes of death.

pERK = experiment: Immunohistochemistry of pERK1/2 and ERK1/2 in tumors of NPcis mice; assay type: in vivo; conditions: sarcomas of NPcis mice, 195 mg/kg diet
Description: Mouse tumors were first fixed by formalin and embedded in paraffin. For hematoxylin & eosin (H&E) staining, the section was de-paraffinized and stained by the standard hematoxylin and eosin procedure to visualize tissue structures. For immunostaining, rabbit anti-Erk1/2 and anti-pErk1/2 antibodies were used. Sections were de-paraffinized using a standard procedure and blocked using 1.9% H2O2 in methanol at room temperature for 10 min. Sections were heated at 100° C. for 20 min in the antigen retrieval citrate solution and blocked by the serum-free protein blocker for 5 min at room temperature. After incubation with the rabbit anti-Erk1/2 or anti-pErk1/2 antibody diluted at 1:50 overnight at 4° C., biotin-conjugated anti-rabbit IgG was applied for 20 min at room temperature, followed by washing and incubation with streptavidin peroxidase for 15 min at room temperature. Antibody binding was visualized by the 3,3′-Diaminobenzidine (DAB) chromogen system. Subsequently, sections were counterstained by hematoxylin. Immunohistochemistry (IHC) quantification of representative tumor tissue sections was carried out with open source software using JPEG files. Mean optical density (OD) was calculated as the log average (maximal intensity/mean intensity) after image processing with color deconvolution and background subtraction. […]

[3] = system: GTP-bound Ras in NF90-8 cells; experiment: Ras activity assay (Active Ras Detection Kit, GST-Raf1-RBD pull-down); assay type: cell-based, human; conditions: 0.2 and 1 μM, 24 h
Description: A Ras activity assay was performed according to the manufacturer's instructions for the Active Ras Detection Kit. Briefly, cells were lysed with the Lysis/Binding/Wash buffer and pelleted, then the supernatant was used as the cell lysate. In the positive control, 5 μL of 10 mM GTPγS was added to 500 μL of lysates and incubated at 30° C. for 15 min. Cell lysates were incubated with glutathione resin, together with the purified GST-Raf1-RBD protein at 4° C. for 1 h in a spin cup. The resin was washed, and the bound proteins were eluted by incubating with dithiothreitol (DTT)-containing sample buffer at RT for 2 min. Eluted samples were heated and analyzed by anti-Ras Western blotting. Human MPNST cells NF90-8 and sNF96.2, both derived from NF1 patients, were treated with various MBZ concentrations for 72 h. […] Because NF1-associated tumors are mainly driven by Ras hyperactivation, MBZ's ability to inhibit Ras activity in the NF90-8 cell line was studied by exposing NF90-8 cells to different concentrations of MBZ (0.2 and 1 μM) for 24 h. […] This confirmed the Ras inhibitory effect of MBZ in vitro.

sNF96.2 cells = experiment: Cell proliferation assay (Cell Counting Kit-8), sNF96.2; assay type: cell-based; conditions: Homo sapiens, 72 h
Description: as §1

[4] = 195 mg/kg feed from day 60, solid malignancies, male and female combined

## COC(=O)Nc1nc2ccc(C(=O)c3ccccc3)cc2[nH]1 [MBZ, mebendazole]
NF90-8 cells
  IC50: 180 nM
[1]; 195 mg/kg feed, started 60 days after birth, male and female
  tolerability of long-term daily continuous administration: well tolerated
[1]; 250 and 215 mg/kg diets, over 4 weeks
  signs of toxicity: excessive toxicity
[1]; 250 and 215 mg/kg diets, over 4 weeks, male and female NPcis mice
  weight loss: 10-15%
[2]; [4]
  delay of tumor occurrence and median mortality vs control: 32 days
  tumor occurrence and median mortality: 192 days
[2]
  effect on survival of non-solid malignancy-related and unknown causes of death: did not affect
  effect on overall median survival vs controls: significantly increased
  overall median survival: 199 days
[2]; female mice, solid malignancies
  increase in median survival: 14 days
[2]; male mice, solid malignancies
  increase in median survival: 34.5 days
[2]; vs control NPcis mice
  reduction in solid cancer-related causes of death: ~25%
pERK
  ERK staining, mean intensity: 0.07
pERK; three tumor samples
  pERK DAB staining, mean optical density (OD): 0.02
[3]
  activated form of GTP-bound Ras: reduced in MBZ-treated NF90-8 cells in a concentration-dependent manner
sNF96.2 cells
  IC50: 320 nM

## CC1=C(CC(=O)O)c2cc(F)ccc2/C1=C\c1ccc([S+](C)[O-])cc1 (stereo not shown) [SUL, sulindac]
[2]
  effect on survival of non-solid malignancy-related and unknown causes of death: neither SUL nor CXB had an effect
  effect on overall median survival vs controls: failed to demonstrate any effect
  overall median survival: 171.5 days

Source: patent US11850235B2, “Preventative effect of mebendazole against malignancies in neurofibromatosis” (priority 2021, dated 2023)
